The nature of assay [1]: Antioxidant activity assessed as DPPH free radical scavenging activity. It counts as functional. In general terms: DPPH is a stable violet radical that fades when it is reduced.
Assay [2] has as its system RAW264.7. The assay can be described thus: Anti-inflammatory activity in mouse RAW264.7 cells assessed as inhibition of LPS/IFN-gamma-induced nitric oxide production preincubated for 24 hrs followed by LPS/IFN-gamma-stimulation and measured after 17 hrs by Griess assay. Format: functional, cell-based. (Griess reagent forms a coloured azo dye with nitrite.)
Assay [3] is described as follows: Cytotoxicity against human […] cells assessed as reduction in cell viability. Format: functional, cell-based.
In assay [4] the test system is U-266. The assay can be described thus: Cytotoxicity against human U266 cells assessed as reduction in cell viability. It counts as functional, cell-based.
The test system of assay [5] is MM1.S. Description: Cytotoxicity against human MM1S cells assessed as reduction in cell viability. It counts as functional, cell-based.
The subject of assay [6] is HepG2. The assay can be described thus: Cytotoxicity against human HepG2 cells assessed as reduction in cell viability after 24 hrs by MTT assay. Format: functional, cell-based. The following applies: HepG2, 24 h. For orientation: Tetrazolium assays rely on reduction of a dye to a coloured formazan, in cell work by metabolically active cells.
Assay [7] relates to K562. The assay can be described thus: Cytotoxicity against human K562 cells assessed as reduction in cell viability after 24 hrs by MTT assay. The following applies: K562, 24 h. It counts as functional, cell-based.
The subject of assay [8] is HeLa. Description: Cytotoxicity against human HeLa cells assessed as reduction in cell viability after 24 hrs by MTT assay. Format: functional, cell-based.
Assay [9] relates to A549. Description: Cytotoxicity against human A549 cells assessed as reduction in cell viability after 24 hrs by MTT assay. Format: functional, cell-based. The following applies: A549, 24 h.
Assay [10] deals with L02. The assay can be described thus: Cytotoxicity against human LO2 cells assessed as reduction in cell viability after 24 hrs by MTT assay. It counts as cell-based. The following applies: L02, 24 h.
In assay [11] the test system is SGC-7901. Description: Cytotoxicity against human SGC7901 cells assessed as reduction in cell viability after 24 hrs by MTT assay. The following applies: SGC-7901, 24 h. Format: functional, cell-based.
For assay [12], the system named is THP-1. Description: Cytotoxicity against human THP1 cells assessed as reduction in cell viability after 24 hrs by MTT assay. The following applies: THP-1, 24 h. It counts as functional, cell-based.
Assay [13] deals with MCF7. Description: Cytotoxicity against human MCF7 cells assessed as reduction in cell viability by MTT assay. Format: functional, cell-based.
In assay [14] the test system is MDA-MB-231. Description: Antiproliferative activity against human MDA-MB-231 cells 24 to 48 hrs by MTT assay. It counts as functional, cell-based.
Assay [15] has as its system SW480. Description: Cytotoxicity against human SW480 cells assessed as reduction in cell viability after 24 to 48 hrs by MTT assay. Format: functional, cell-based.
Assay [16] can be described thus: Inhibition of NFkappaB (unknown origin). Also on record: species or system Homo sapiens.
Assay [17] in a line: Antioxidant activity assessed as DPPH free radical scavenging activity after 30 mins. Format: functional.
The test system of assay [18] is LS174T. The assay can be described thus: Cytotoxicity against human LS174T cells assessed as reduction in cell viability by SRB assay. It counts as functional, cell-based.
The test system of assay [19] is K562. Description: Cytotoxicity against human K562 cells assessed as reduction in cell viability after 48 hrs by SRB assay. Format: functional, cell-based. The following applies: K562, 48 h.
Assay [20] relates to HCT-15. The assay can be described thus: Cytotoxicity against human HCT15 cells assessed as reduction in cell viability after 48 hrs by SRB assay. Format: functional, cell-based. The following applies: HCT-15, 48 h.
Assay [21] relates to PANC-1. The assay can be described thus: Cytotoxicity against human PANC1 cells assessed as reduction in cell viability by MTT assay. Format: functional, cell-based.
The subject of assay [22] is PC-3. The assay can be described thus: Cytotoxicity against human PC3 cells assessed as reduction in cell viability by MTT assay. It counts as functional, cell-based.
Assay [23] has as its system MIA PaCa-2. The assay can be described thus: Cytotoxicity against human MIAPaCa2 cells assessed as reduction in cell viability by MTT assay. It counts as functional, cell-based.
Assay [24] has as its system Bacillus subtilis. The assay can be described thus: Antibacterial activity against Bacillus subtilis after 24 hrs by twofold serial dilution technique. It counts as functional.
For assay [25], the system named is LS174T. The assay can be described thus: Cytotoxicity against human LS174T cells assessed as reduction in cell viability in presence of PTX by SRB assay relative to control. Format: functional.
Assay [26] has as its system LS174T. Description: Cytotoxicity against human LS174T cells assessed as reduction in cell viability in presence of PTX by SRB assay. It counts as functional, cell-based.

Converted amounts (≈) assume the structure as drawn.

As to `COc1cc(/C=C/C(=O)C(=NNc2ccc(C)cc2)C(=O)/C=C/c2ccc(O)c(OC)c2)ccc1O`, the IC50 in [1] is 0.253 µg/mL (≈ 0.52 µM).

In the case of `O=C(/C=C(O)/C=C/c1ccc(O)c(O)c1)c1ccccc1O`, the IC50 in [2] was 9.6 µM.

For the compound `COc1cc(/C=C/C(=O)C(=Cc2ccc3c(c2)C(=O)N(C2CCC(=O)NC2=O)C3=O)C(=O)/C=C/c2ccc(O)c(OC)c2)ccc1O` (stereo not given), the IC50 amounted to 4.55 µM in assay [3], 96 µM in assay [4] and 6.44 µM in [5].

Take `COc1cc(/C=C/C(=O)/C=C/c2ccc3c(c2)C(=O)N(C2CCC(=O)NC2=O)C3=O)ccc1O` (stereo not given): the IC50 in assay [3] came to 5.62 µM; in [4], 2.33 µM; in assay [5], 7.59 µM.

Regarding `O=C(/C=C(O)/C=C/c1ccc(O)c(O)c1)c1cc(Cl)ccc1O`, the IC50 in [2] is 4.9 µM.

Take `O=C1/C(=C/c2cc(/N=C/c3ccc(O)c(O)c3O)ccc2F)CNC/C1=C\c1cc(/N=C/c2ccc(O)c(O)c2O)ccc1F`: the IC50 in assay [6], in [7], in assay [8], in assay [9], in [10] and in assay [11] was less than 2 µM each time. Besides, the IC50 in assay [12] was less than 2 µM.

`CCOC(OCC)c1ccc(/C=C2\CN(C)C/C(=C\c3ccc(C(OCC)OCC)cc3)C2=NO)cc1`: the IC50 in assay [13] worked out at 0.03 µM.

In turn, `CN1C/C(=C\c2cn(-c3ccccc3)nc2-c2ccccc2)C(=O)/C(=C/c2cn(-c3ccccc3)nc2-c2ccccc2)C1` returned an IC50 in [14] (mda-mb-231) of 20.5 ppm.

Take `O=C1/C(=C/c2cn(-c3ccccc3)nc2-c2ccc([N+](=O)[O-])cc2)CCCC/C1=C\c1cn(-c2ccccc2)nc1-c1ccc([N+](=O)[O-])cc1`: the IC50 in assay [14] (mda-mb-231) amounted to 32.4 ppm.

`COc1ccc(-c2nn(-c3ccccc3)cc2/C=C2\CCCC/C(=C\c3cn(-c4ccccc4)nc3-c3ccc(OC)cc3)C2=O)cc1` had an IC50 in assay [14] (mda-mb-231) of 75.8 ppm.

Regarding `O=C(/C=C/c1c[nH]c2ccccc12)CC(=O)/C=C/c1c[nH]c2ccccc12`, in assay [15], the IC50 is 15 to 17 µM.

In the case of `C=CC(=O)NC(c1ccccc1)C(C(=O)/C=C/c1cccc(O)c1)C(=O)/C=C/c1cccc(O)c1` (stereo not given), in assay [16], the IC50 came to 2.8 µg/mL (≈ 5.99 µM).

`COc1ccc(-c2nn(-c3ccccc3)cc2/C=C2\CN(C)C/C(=C\c3cn(-c4ccccc4)nc3-c3ccc(OC)cc3)C2=O)cc1`: the IC50 turned out to be 6400 µM in assay [17] and 39.9 ppm in [14] (mda-mb-231).

As for `O=C1NC(/C=C/c2ccccc2)=NC/1=C\C=C\c1ccccc1`, in assay [18], the IC50 was 8.9 µM.

Consider `COc1cc(CCc2cc(CCc3ccc(OC(C)=O)c(OC)c3)on2)ccc1OC(C)=O`, for which the values for the IC50 in assay [19] and in assay [20] were 3 µM and 2.8 µM, respectively.

Regarding `O=C(/C=C/c1cn(-c2ccccc2)nc1-c1ccc([N+](=O)[O-])cc1)/C=C/c1cn(-c2ccccc2)nc1-c1ccc([N+](=O)[O-])cc1`, in assay [14] (mda-mb-231), the IC50 worked out at 50.4 ppm.

Turning to `CN1C/C(=C\c2ccc(N(C)C)cc2[N+](=O)[O-])C(=NO)/C(=C/c2ccc(N(C)C)cc2[N+](=O)[O-])C1`, the IC50 in [13], in assay [21], in assay [22] and in assay [23] was 0.02 µM each time.

As to `CCN1N=C(C(=NNc2ccccc2)C2=NN(CC)C(c3ccc(O)c(OC)c3)C2)CC1c1ccc(O)c(OC)c1` (stereo not given), in [24], the MIC is 3.12 µg/mL (≈ 5.61 µM).

On to `O=C1/C(=C/c2cn(-c3ccccc3)nc2-c2ccccc2)CN(Cc2ccccc2)C/C1=C\c1cn(-c2ccccc2)nc1-c1ccccc1`, for which the IC50 in [14] (mda-mb-231) is recorded as 45.1 ppm.

In [14] (Homo sapiens, MDA-MB-231), `O=C1/C(=C/c2cn(-c3ccccc3)nc2-c2ccccc2)CCCC/C1=C\c1cn(-c2ccccc2)nc1-c1ccccc1` showed an IC50 of 11.6 µM.

Take `O=C1/C(=C/c2cn(-c3ccccc3)nc2-c2ccccc2)CNC/C1=C\c1cn(-c2ccccc2)nc1-c1ccccc1`: in assay [17], the IC50 was found to be 10500 µM.

Take `COc1cc(/C=C/C=C2N=C(/C=C/c3ccccc3)NC\2=O)ccc1O`: the Activity in assay [25] was 2.5 - 45.7%. In assay [18], the IC50 was 7.6 µM.

As for `CCCNC(=O)/C(=C/C=C/c1ccccc1)NC(=O)/C=C/c1ccccc1`, in [26], the IC50 was determined as 0.0038 µM. Further, the Activity in assay [25] is recorded as 16.2%.

As usually defined, the MIC is the lowest concentration found to suppress growth. Lower therefore signals inhibition by little substance.

The record behind these values is ChEMBL document CHEMBL4414572, “Curcumin analogues and their hybrid molecules as multifunctional drugs” (Eur J Med Chem, 2019).
